{"source": "patent US8017633B2", "about": "“Roflumilast for the treatment of diabetes mellitus” (Nycomed GmbH, priority 2005, dated 2011)", "test_system": "C57BLKS db/db mice", "test": "10 days study: fasting blood glucose and oral glucose tolerance in db/db mice", "type": "in vivo, mouse", "conditions": "for Blood glucose (15 min after glucose application) / Blood glucose (before glucose application): fasted 24 h; for Blood glucose (15 min after glucose application): 15 min after oral 1 g/kg glucose; for Blood glucose (before glucose application): 1 h after dose", "experimental": "Female C57BLKS db/db mice obtained from M&B A/S (8680 Ry, Denmark) were used in the studies at 10 to 11 weeks of age. Mice were housed 10 per cage and allowed free access to water and standard laboratory diet for rodents (chow 3433, Provimi Kliba SA, 4303 Kaiseraugst, Switzerland).\nMice were allowed to acclimate to the local animal facilities for 1 week and retro-orbital blood samples were obtained 3 to 7 days prior to the start of the study.\nMice were treated with vehicle, Roflumilast or Roflumilast-N-Oxide, respectively once daily in the morning. Roflumilast or Roflumilast-N-Oxide was suspended in 4% methocel and applied via oral gavage using oral feeding & dosing needles (outer diameter: 1.5 mm, TSE GmbH, 61350 Bad Homburg, Germany). A volume of 10 ml/kg body weight was administered for each dose.\n10 days studies: Mice were treated with vehicle, Roflumilast or Roflumilast-N-Oxide once daily in the morning. On day 9, mice were fasted for 24 hours by removing standard diet for laboratory animals 1 hour after drug application. On day 10, one hour after administration of vehicle, Roflumilast or Roflumilast-N-Oxide glucose tolerance was assessed by oral application of 1 g/kg/10 ml glucose. Blood was sampled before and 15 minutes after glucose application and levels of glucose (accu-chek, Roche Diagnostics GmbH, 68298 Mannheim, Germany) were measured.", "key": {"[1]": {"conditions": "Roflumilast 1 mg/kg oral once daily 10 days"}, "[2]": {"conditions": "Roflumilast 10 mg/kg oral once daily 10 days"}}, "data": [{"smiles": "O=C(Nc1c(Cl)cncc1Cl)c1ccc(OC(F)F)c(OCC2CC2)c1", "note": "[Roflumilast, 3-cyclopropylmethoxy-4-difluoromethoxy-N-(3,5-dichloropyrid-4-yl)benzamide]", "values": [{"measurement": "Blood glucose (15 min after glucose application)", "setting": "[1]", "result": 507, "unit": "mg/dL"}, {"measurement": "Blood glucose (before glucose application)", "setting": "[1]", "result": 347, "unit": "mg/dL"}, {"measurement": "Blood glucose (15 min after glucose application)", "setting": "[2]", "result": 412, "unit": "mg/dL"}, {"measurement": "Blood glucose (before glucose application)", "setting": "[2]", "result": 191, "unit": "mg/dL"}, {"measurement": "Effect on fasting blood glucose levels (summary in words)", "setting": "db/db mice", "result": "reduce"}, {"measurement": "Effect on postprandial blood glucose levels (summary in words)", "setting": "db/db mice", "result": "reduce"}]}]}
